According to patent publication US20240317718A1, “SUBSTITUTED HETEROCYCLIC COMPOUNDS” (BRISTOL-MYERS SQUIBB COMPANY, priority 2021, published 2024):

Key:
in vitro = details: human, Caco-2, pH 7.4
[1] = tested on: IFNα-induced pSTAT5 (Tyk2-mediated signal transduction); assay: IFNα-induced STAT phosphorylation in human whole blood; format: cell-based; details: 1 h incubation with compound, 1000 U/mL IFNα A/D for 15 min, CD3 positive population, read-out: Human Whole blood IFNa pSTAT5 IC50
Protocol: IFNα-Induced STAT Phosphorylation in Human Whole Blood
After an hour long incubation with compound, human whole blood (drawn with ACD-A as anticoagulant) was stimulated with 1000 U/mL recombinant human IFNα A/D (R&D Systems 11200-2) for 15 min. The stimulation was stopped by adding Fix/Lyse buffer (BD 558049). Cells were stained with a CD3 FITC antibody (BD 555916), washed, and permeabilized on ice using Perm III buffer (BD 558050). Cells were then stained with an Alexa-Fluor 647 pSTAT5 (pY694) antibody (BD 612599) for 60 min prior to analysis on the iQue Plus. The amount of pSTAT5 expression was quantitated by median fluorescence intensity after gating on the CD3 positive population.

## [2H]C([2H])([2H])NC(=O)c1nnc(NC(=O)C2CC2)cc1Nc1cc(F)cc(-c2cnc(C3CC3)cn2)c1OC [Example 16, 6-(cyclopropanecarboxamido)-4-((3-(5-cyclopropylpyrazin-2-yl)-5-fluoro-2-methoxyphenyl)amino)-N-(methyl-d3)pyridazine-3-carboxamide]
In vitro
  Papp A→B at 2 h, 3 μM: 19.4 ×10⁻⁶ cm/s
  efflux ratio at 2 h, 3 μM: 0.5
[1]
  IC50: 197 nM

## [2H]C([2H])([2H])NC(=O)c1nnc(NC(=O)C2CC2)cc1Nc1cc(F)cc(-c2cnc(C3(O)CCC3)cn2)c1OC [Example 15, 6-cyclopropaneamido-4-({5-fluoro-3-[5-(1-hydroxycyclobutyl)pyrazin-2-yl]-2-methoxyphenyl}amino)-N-(^2H3)methylpyridazine-3-carboxamide]
In vitro
  Papp A→B at 2 h, 3 μM: 30.9 ×10⁻⁶ cm/s
  efflux ratio at 2 h, 3 μM: 1
[1]
  IC50: 99 nM

## [2H]C([2H])([2H])NC(=O)c1nnc(NC(=O)C2CC2)cc1Nc1nccc(-c2nc(C)ns2)c1OC [Example 39, 6-cyclopropaneamido-4-{[3-methoxy-4-(3-methyl-1,2,4-thiadiazol-5-yl)pyridin-2-yl]amino}-N-(^2H3)methylpyridazine-3-carboxamide]
In vitro
  Papp A→B at 2 h, 3 μM: 46.3 ×10⁻⁶ cm/s
  efflux ratio at 2 h, 3 μM: 0.3
[1]
  IC50: 159 nM

## [2H]C([2H])([2H])NC(=O)c1nnc(NC(=O)C2CC2)cc1Nc1ccc(F)c(-c2cnn(C)c2)c1OC [Example 26, 6-cyclopropaneamido-4-{[4-fluoro-2-methoxy-3-(1-methyl-1H-pyrazol-4-yl)phenyl]amino}-N-(^2H3)methylpyridazine-3-carboxamide]
In vitro
  Papp A→B at 2 h, 3 μM: 30 ×10⁻⁶ cm/s
  efflux ratio at 2 h, 3 μM: 1
[1]
  IC50: 201 nM

## [2H]C([2H])([2H])NC(=O)c1nnc(NC(=O)C2C[C@H]2C)cc1Nc1cccc(-c2nnn(C)n2)c1OC (mixture of isomers) [Example 25, 4-{[2-methoxy-3-(2-methyl-2H-1,2,3,4-tetrazol-5-yl)phenyl]amino}-N-(^2H3)methyl-6-[(1R,2R)-2-methylcyclopropaneamido]pyridazine-3-carboxamide]
In vitro
  Papp A→B at 2 h, 3 μM: 23.3 ×10⁻⁶ cm/s
  efflux ratio at 2 h, 3 μM: 1.1
[1]
  IC50: 248 nM

## [2H]C([2H])([2H])NC(=O)c1nnc(NC(=O)C2CC2)cc1Nc1cccc(-c2cnsc2)c1OC [Example 36, 6-cyclopropaneamido-4-{[2-methoxy-3-(1,2-thiazol-4-yl)phenyl]amino}-N-(^2H3)methylpyridazine-3-carboxamide]
In vitro
  Papp A→B at 2 h, 3 μM: 20.3 ×10⁻⁶ cm/s
  efflux ratio at 2 h, 3 μM: 0.9
[1]
  IC50: 225 nM

## [2H]C([2H])([2H])NC(=O)c1nnc(NC(=O)C2CC2)cc1Nc1cccc(-c2cnn(C3CC3)c2)c1OC [Example 28, 6-cyclopropaneamido-4-{[3-(1-cyclopropyl-1H-pyrazol-4-yl)-2-methoxyphenyl]amino}-N-(^2H3)methylpyridazine-3-carboxamide]
In vitro
  Papp A→B at 2 h, 3 μM: 27.4 ×10⁻⁶ cm/s
  efflux ratio at 2 h, 3 μM: 0.7
[1]
  IC50: 425 nM

## [2H]C([2H])([2H])NC(=O)c1nnc(NC(=O)C2CC2)cc1Nc1nccc(-c2cnc(C(C)(C)O)cn2)c1OC [Example 20, 6-(cyclopropanecarboxamido)-4-((4-(5-(2-hydroxypropan-2-yl)pyrazin-2-yl)-3-methoxypyridin-2-yl)amino)-N-(methyl-d3)pyridazine-3-carboxamide]
In vitro
  Papp A→B at 2 h, 3 μM: 18.8 ×10⁻⁶ cm/s
  efflux ratio at 2 h, 3 μM: 2.9
[1]
  IC50: 148 nM

## [2H]C([2H])([2H])NC(=O)c1nnc(NC(=O)C2CC2)cc1Nc1nccc(-c2cn(C)nc2C)c1OC [Example 31, 6-cyclopropaneamido-4-{[4-(1,3-dimethyl-1H-pyrazol-4-yl)-3-methoxypyridin-2-yl]amino}-N-(^2H3)methylpyridazine-3-carboxamide]
In vitro
  Papp A→B at 2 h, 3 μM: 39.3 ×10⁻⁶ cm/s
  efflux ratio at 2 h, 3 μM: 1
[1]
  IC50: 289 nM

## [2H]C([2H])([2H])NC(=O)c1nnc(NC(=O)C2CC2)cc1Nc1nccc(-c2cnn(C)c2C)c1OC [Example 32, 6-cyclopropaneamido-4-{[4-(1,5-dimethyl-1H-pyrazol-4-yl)-3-methoxypyridin-2-yl]amino}-N-(^2H3)methylpyridazine-3-carboxamide]
In vitro
  Papp A→B at 2 h, 3 μM: 31.5 ×10⁻⁶ cm/s
  efflux ratio at 2 h, 3 μM: 0.9
[1]
  IC50: 437 nM

## [2H]C([2H])([2H])NC(=O)c1nnc(NC(=O)C2CC2)cc1Nc1cccc(-c2coc(C)n2)c1OC [Example 17, 6-(cyclopropanecarboxamido)-4-((2-methoxy-3-(2-methyloxazol-4-yl)phenyl)amino)-N-(methyl-d3)pyridazine-3-carboxamide]
In vitro
  Papp A→B at 2 h, 3 μM: 47.4 ×10⁻⁶ cm/s
  efflux ratio at 2 h, 3 μM: 0.4
[1]
  IC50: 63 nM

## [2H]C([2H])([2H])NC(=O)c1nnc(NC(=O)C2CC2)cc1Nc1nccc(-c2ncns2)c1OC [Example 41, 6-cyclopropaneamido-4-{[3-methoxy-4-(1,2,4-thiadiazol-5-yl)pyridin-2-yl]amino}-N-(^2H3)methylpyridazine-3-carboxamide]
In vitro
  Papp A→B at 2 h, 3 μM: 27.7 ×10⁻⁶ cm/s
  efflux ratio at 2 h, 3 μM: 0.4
[1]
  IC50: 175 nM

## [2H]C([2H])([2H])NC(=O)c1nnc(NC(=O)C2CC2)cc1Nc1cc(F)cc(-c2cocn2)c1OC [Example 37, 6-cyclopropaneamido-4-{[5-fluoro-2-methoxy-3-(1,3-oxazol-4-yl)phenyl]amino}-N-(^2H3)methylpyridazine-3-carboxamide]
In vitro
  Papp A→B at 2 h, 3 μM: 35.4 ×10⁻⁶ cm/s
  efflux ratio at 2 h, 3 μM: 0.4
[1]
  IC50: 84 nM

## [2H]C([2H])([2H])NC(=O)c1nnc(NC(=O)[C@@H]2C[C@H]2C)cc1Nc1nccc(-c2nc(C)ns2)c1OC [Example 40, 4-{[3-methoxy-4-(3-methyl-1,2,4-thiadiazol-5-yl)pyridin-2-yl]amino}-N-(^2H3)methyl-6-[(1R,2R)-2-methylcyclopropaneamido]pyridazine-3-carboxamide]
In vitro
  Papp A→B at 2 h, 3 μM: 12.6 ×10⁻⁶ cm/s
  efflux ratio at 2 h, 3 μM: 0.3
[1]
  IC50: 179 nM

## [2H]C([2H])([2H])NC(=O)c1nnc(NC(=O)C2CC2)cc1Nc1nccc(-c2cnn(C3CC3)c2)c1OC [Example 30, 6-cyclopropaneamido-4-{[4-(1-cyclopropyl-1H-pyrazol-4-yl)-3-methoxypyridin-2-yl]amino}-N-(^2H3)methylpyridazine-3-carboxamide]
In vitro
  Papp A→B at 2 h, 3 μM: 22.7 ×10⁻⁶ cm/s
  efflux ratio at 2 h, 3 μM: 0.5
[1]
  IC50: 193 nM

## [2H]C([2H])([2H])NC(=O)c1nnc(NC(=O)C2CC2)cc1Nc1cccc(-c2ccns2)c1OC [Example 34, 6-cyclopropaneamido-4-{[2-methoxy-3-(1,2-thiazol-5-yl)phenyl]amino}-N-(^2H3)methylpyridazine-3-carboxamide]
In vitro
  Papp A→B at 2 h, 3 μM: 23.3 ×10⁻⁶ cm/s
  efflux ratio at 2 h, 3 μM: 1.1
[1]
  IC50: 474 nM

## [2H]C([2H])([2H])NC(=O)c1nnc(NC(=O)C2CC2)cc1Nc1cccc(-c2noc(CCF)n2)c1OC [Example 5, 6-(cyclopropanecarboxamido)-4-((3-(5-(2-fluoroethyl)-1,2,4-oxadiazol-3-yl)-2-methoxyphenyl)amino)-N-(methyl-d3)pyridazine-3-carboxamide]
In vitro
  Papp A→B at 2 h, 3 μM: 64 ×10⁻⁶ cm/s
  efflux ratio at 2 h, 3 μM: 0.7
[1]
  IC50: 91 nM

## [2H]C([2H])([2H])NC(=O)c1nnc(NC(=O)C2CC2)cc1Nc1cccc(-c2csc(C)n2)c1OC [Example 21, 6-cyclopropaneamido-4-{[2-methoxy-3-(2-methyl-1,3-thiazol-4-yl)phenyl]amino}-N-(^2H3)methylpyridazine-3-carboxamide]
In vitro
  Papp A→B at 2 h, 3 μM: 14.1 ×10⁻⁶ cm/s
  efflux ratio at 2 h, 3 μM: 0.7
[1]
  IC50: 385 nM

## [2H]C([2H])([2H])NC(=O)c1nnc(NC(=O)C2CC2)cc1Nc1cc(C)cc(-c2cnc(C3(O)CCC3)cn2)c1OC [Example 14, 6-(cyclopropanecarboxamido)-4-((3-(5-(1-hydroxycyclobutyl)pyrazin-2-yl)-2-methoxy-5-methylphenyl)amino)-N-(methyl-d3)pyridazine-3-carboxamide]
In vitro
  Papp A→B at 2 h, 3 μM: 37.8 ×10⁻⁶ cm/s
  efflux ratio at 2 h, 3 μM: 0.9
[1]
  IC50: 148 nM

## [2H]C([2H])([2H])NC(=O)c1nnc(NC(=O)C2CC2)cc1Nc1cccc(-c2nc(C)oc2C)c1OC [Example 18, 6-cyclopropaneamido-4-{[3-(2,5-dimethyl-1,3-oxazol-4-yl)-2-methoxyphenyl]amino}-N-(^2H3)methylpyridazine-3-carboxamide]
In vitro
  Papp A→B at 2 h, 3 μM: 25.9 ×10⁻⁶ cm/s
  efflux ratio at 2 h, 3 μM: 0.7
[1]
  IC50: 152 nM

## [2H]C([2H])([2H])NC(=O)c1nnc(NC(=O)C2CC2)cc1Nc1cccc(-c2ccc(C(C)(C)C#N)cn2)c1OC [Example 24, 4-({3-[5-(1-cyano-1-methylethyl)pyridin-2-yl]-2-methoxyphenyl}amino)-6-cyclopropaneamido-N-(^2H3)methylpyridazine-3-carboxamide]
In vitro
  Papp A→B at 2 h, 3 μM: 14.8 ×10⁻⁶ cm/s
  efflux ratio at 2 h, 3 μM: 1.2
[1]
  IC50: 426 nM

## [2H]C([2H])([2H])NC(=O)c1nnc(NC(=O)C2CC2)cc1Nc1cccc(-c2ccsn2)c1OC [Example 35, 6-cyclopropaneamido-4-{[2-methoxy-3-(1,2-thiazol-3-yl)phenyl]amino}-N-(^2H3)methylpyridazine-3-carboxamide]
In vitro
  Papp A→B at 2 h, 3 μM: 42.2 ×10⁻⁶ cm/s
  efflux ratio at 2 h, 3 μM: 0.5
[1]
  IC50: 121 nM

## [2H]C([2H])([2H])NC(=O)c1nnc(NC(=O)C2CC2)cc1Nc1nccc(-c2cnsc2)c1OC [Example 38, 6-cyclopropaneamido-4-{[3-methoxy-4-(1,2-thiazol-4-yl)pyridin-2-yl]amino}-N-(^2H3)methylpyridazine-3-carboxamide]
In vitro
  Papp A→B at 2 h, 3 μM: 59.5 ×10⁻⁶ cm/s
  efflux ratio at 2 h, 3 μM: 0.5
[1]
  IC50: 381 nM
